Each structure is given as a SMILES string. Activity calls are given as the source filed them. No rule for the calls is given here.

In this experiment the test system is AML12 mouse hepatocytes, cytotoxicity. Description: cytotoxicity in AML12 hepatocytes, SAR follow-up, cytotoxicity control, cell-based (AID 504443).
With `CCOc1ccc(CCNC(=O)c2ccc(N3CCOCC3)s2)cc1OCC`, the IC50 (commonly the concentration needed to halve the response being measured) was > 10 µM (inactive). As for `CCOc1ccc(CCNC(=O)COC(=O)c2cc(OC)cc(OC)c2)cc1OCC`, the figure is > 10 µM (inactive); as for `CCn1c(C(=O)NCCc2ccc(OC)c(OC)c2)cc2ccsc21`, > 10 µM (inactive).

On to `Cn1c(C(=O)Nc2ccc3c(c2)OCO3)cc2ccsc21`, for which the IC50 is > 10 µM (inactive). As for `CCn1c(C(=O)NCc2cc(OC)c(OC)c(OC)c2)cc2ccsc21`, the figure is > 10 µM (inactive).

`COc1ccc(CNC(=O)c2cc(-c3ccccc3)c(N3CCOCC3)s2)cc1OC`: the IC50 was > 10 µM (inactive). As to `CCOc1ccc(CCNC(=O)COC(=O)c2ccc(OC)c(OC)c2OC)cc1OCC`, the IC50 is > 10 µM (inactive). The value for `CCOc1ccc(CCNC(=O)c2cc3ccsc3n2C)cc1OC` was > 10 µM (inactive). The value for `CCOc1ccc(CCNC(=O)c2cc3ccccc3n2C)cc1OC` was > 10 µM (inactive); that for `O=C(NCCc1ccc2c(c1)OCO2)c1cc(-c2ccccc2)c(N2CCOCC2)s1` was > 10 µM (inactive). The value for `CCOc1ccc(CCNC(=O)Cn2cccc2C(=O)c2ccccc2C)cc1OCC` was > 10 µM (inactive); that for `Cn1c(=O)cc(SCC(=O)NCc2ccc3c(c2)OCO3)c2ccccc21` was > 10 µM (inactive); that for `CCOc1cc(CCNC(=O)c2cc3sccc3[nH]2)ccc1OC` was > 10 µM (inactive).

With `COc1ccc(NC(=O)c2cc3ccsc3n2C)cc1OC`, the IC50 was > 10 µM (inactive).

Consider `COc1cc(CNC(=O)c2cc3ccsc3n2C)cc(OC)c1OC`, for which the IC50 was > 10 µM (inactive). As for `COc1cc(CNC(=O)CSc2cc(=O)n(C)c3ccccc23)cc(OC)c1OC`, the figure is > 10 µM (inactive); as for `COc1ccc(CCNC(=O)c2cc(-c3ccccc3)c(N3CCOCC3)s2)c(OC)c1OC`, > 10 µM (inactive). Turning to `CCOc1ccc(CCNC(=O)COc2cc(=O)n(C)c3ccccc23)cc1OCC`, the IC50 is > 10 µM (inactive).

With `Cn1c(=O)cc(SCC(=O)Nc2ccc3c(c2)OCO3)c2ccccc21`, the IC50 was > 10 µM (inactive). The value for `CCOc1ccc(CCNC(=O)CSc2cc(=O)n(C)c3ccccc23)cc1OC` was > 10 µM (inactive); that for `CCOc1ccc(CCNC(=O)Cn2cccc2C(=O)c2ccccc2)cc1OCC` was > 10 µM (inactive). As for `CCOc1ccc(CCNC(=O)c2nnc(Cc3ccc(F)cc3)o2)cc1OCC`, the figure is > 10 µM (inactive); as for `CCOc1ccc(CCNC(=O)CSc2cc(=O)n(C)c3cc(Cl)ccc23)cc1OCC`, > 10 µM (inactive); as for `CCn1c(C(=O)Nc2ccc3c(c2)OCO3)cc2sccc21`, > 10 µM (inactive).

For the compound `CCOc1ccc(CCNC(=O)CN2CCN(Cc3ccccc3C)C2=O)cc1OCC`, the IC50 was > 10 µM (inactive). The value for `CCOc1ccc(CCNC(=O)c2cc3sccc3n2CC)cc1OCC` was > 10 µM (inactive); that for `CCOc1cc(CCNC(=O)COc2cc(=O)n(C)c3ccccc23)ccc1OC` was > 10 µM (inactive); that for `CCOc1cc(CCNC(=O)c2cc(-c3ccccc3)c(N3CCOCC3)s2)ccc1OC` was > 10 µM (inactive). As for `CCOc1cc(CCNC(=O)c2cc3sccc3n2CC)ccc1OC`, the IC50 is > 10 µM (inactive). For the compound `CCOc1cc(CCNC(=O)c2cc3ccccc3n2C)ccc1OC`, the IC50 is > 10 µM (inactive).

`CCOc1ccc(CCNC(=O)c2cc3ccsc3n2CC)cc1OC`: the IC50 was > 10 µM (inactive).

In the case of `CCOc1cc(CCNC(=O)c2ccc(N3CCOCC3)s2)ccc1OC`, the IC50 is > 10 µM (inactive). As for `CCOc1ccc(CCNC(=O)c2cc3sccc3n2CC)cc1OC`, the figure is > 10 µM (inactive); as for `CCn1c(C(=O)Nc2ccc(OC)c(OC)c2)cc2sccc21`, > 10 µM (inactive). The value for `CCOc1ccc(CCNC(=O)CCc2nc(-c3ccc(OC)cc3)no2)cc1OCC` was > 10 µM (inactive); that for `COc1ccc(CCNC(=O)c2cc3sc(Cl)cc3n2C)cc1OC` was > 10 µM (inactive).

For `COc1ccc(CCNC(=O)c2cc3sccc3n2C)cc1OC`, the IC50 is > 10 µM (inactive).

Consider `CCOc1ccc(CCNC(=O)Cn2nc(C)c3c(C)n(-c4ccccc4)nc3c2=O)cc1OCC`, for which the IC50 was > 10 µM (inactive). The value for `CCOc1ccc(CCNC(=O)CCC(=O)N2CCSc3ccccc32)cc1OCC` was > 10 µM (inactive); that for `CCOc1ccc(CCNC(=O)c2cc3sc(Cl)cc3n2C)cc1OCC` was > 10 µM (inactive). As for `CCOc1ccc(CCNC(=O)c2cc(-c3ccccc3)c(N3CCOCC3)s2)cc1OCC`, the figure is > 10 µM (inactive). In the case of `CCOc1ccc(CCNC(=O)c2cc3sccc3[nH]2)cc1OCC`, the IC50 is > 10 µM (inactive).

For `COc1ccc(CCNC(=O)Cn2cccc2C(=O)c2ccccc2C)cc1OC`, the IC50 was > 10 µM (inactive). Regarding `O=C(NCCc1ccc2c(c1)OCO2)c1ccc(N2CCOCC2)s1`, the IC50 was > 10 µM (inactive). As for `Cn1c(C(=O)NCc2ccc3c(c2)OCO3)cc2ccsc21`, the figure is > 10 µM (inactive); as for `CCn1c(C(=O)Nc2ccc3c(c2)OCO3)cc2ccsc21`, > 10 µM (inactive); as for `CCOc1ccc(CCNC(=O)C2CC=CCC2C(=O)OC(C)C)cc1OCC` (stereo not drawn), > 10 µM (inactive). The value for `Cn1c(=O)cc(SCC(=O)NCCc2ccc3c(c2)OCO3)c2ccccc21` was > 10 µM (inactive).

In the case of `CCOc1ccc(CCNC(=O)CSc2cc(=O)n(CC)c3ccccc23)cc1OCC`, the IC50 is > 10 µM (inactive).

On to `CCn1c(C(=O)Nc2ccc(OC)c(OC)c2)cc2ccsc21`, for which the IC50 is > 10 µM (inactive).

As for `CCn1c(C(=O)NCc2cc(OC)c(OC)c(OC)c2)cc2sccc21`, the IC50 is > 10 µM (inactive). Take `O=C(NCCc1ccc2c(c1)OCO2)c1cc2sccc2[nH]1`: the IC50 was > 10 µM (inactive). For `CCOc1ccc(CCNC(=O)CCC(=O)N2CCOc3ccc(C)cc32)cc1OCC`, the IC50 was > 10 µM (inactive). The value for `CCOc1ccc(CCNC(=O)COC(=O)c2cc(OC)c(OC)c(OC)c2)cc1OCC` was > 10 µM (inactive); that for `CCOc1ccc(CCNC(=O)CCc2nnc3ccc(N4CCCC4)nn23)cc1OCC` was > 10 µM (inactive); that for `CCOc1ccc(CCNC(=O)c2cc3ccsc3n2C)cc1OCC` was > 10 µM (inactive). The value for `COc1ccc(CNC(=O)c2cc3ccsc3n2C)cc1OC` was > 10 µM (inactive); that for `CCOc1ccc(CCNC(=O)CCOc2cc(C)ccc2C)cc1OCC` was > 10 µM (inactive). As for `COc1ccc(CNC(=O)c2ccc(N3CCOCC3)s2)cc1OC`, the figure is > 10 µM (inactive); as for `CCn1c(C(=O)NCc2ccc3c(c2)OCO3)cc2sccc21`, > 10 µM (inactive); as for `COc1ccc(CCNC(=O)COC(=O)c2cc(OC)c(OC)cc2OC)cc1OC`, > 10 µM (inactive).

On to `CCOc1ccc(CCNC(=O)c2cc(-c3ccccc3)c(N3CCOCC3)s2)cc1OC`, for which the IC50 was > 10 µM (inactive). The value for `COc1ccc(CNC(=O)CSc2cc(=O)n(C)c3ccccc23)cc1OC` was > 10 µM (inactive); that for `CCOc1ccc(CCNC(=O)Cn2ncn3nc(-c4ccc(OC)cc4)cc3c2=O)cc1OCC` was > 10 µM (inactive); that for `CCOc1cc(CCNC(=O)c2cc3ccsc3n2C)ccc1OC` was > 10 µM (inactive). As for `CCOc1ccc(CCNC(=O)CN2C(=O)c3cccnc3Oc3ccc(C)cc32)cc1OCC`, the figure is > 10 µM (inactive); as for `COc1ccc(CCNC(=O)c2cc(-c3ccccc3)c(N3CCOCC3)s2)cc1OC`, > 10 µM (inactive); as for `Cn1c(C(=O)NCCc2ccc3c(c2)OCO3)cc2ccccc21`, > 10 µM (inactive). As for `CCOc1cc(CCNC(=O)CSc2cc(=O)n(C)c3ccccc23)ccc1OC`, the figure is > 10 µM (inactive); as for `CCOc1ccc(CCNC(=O)c2cc3sccc3n2C)cc1OCC`, > 10 µM (inactive); as for `COc1ccc(CCNC(=O)c2cc3ccccc3n2C)cc1OC`, > 10 µM (inactive). In the case of `CCOc1ccc(CCNC(=O)CSc2cc(=O)n(C)c3ccccc23)cc1OCC`, the IC50 is > 10 µM (inactive). The value for `CCn1c(C(=O)NCCc2ccc(OC)c(OC)c2)cc2sc(Cl)cc21` was > 10 µM (inactive); that for `CCOc1ccc(CCNC(=O)CCC(=O)N2CCOc3ccccc32)cc1OCC` was > 10 µM (inactive). The value for `CCOc1ccc(CCNC(=O)c2cc3ccsc3n2CC)cc1OCC` was > 10 µM (inactive); that for `CCOc1ccc(CCNC(=O)CCc2nnc3ccc(N4CCCCC4)nn23)cc1OCC` was > 10 µM (inactive). As for `COc1ccc(CCNC(=O)CSc2cc(=O)n(C)c3ccccc23)cc1OC`, the figure is > 10 µM (inactive); as for `CCn1c(C(=O)NCc2ccc(OC)c(OC)c2)cc2ccsc21`, > 10 µM (inactive).

These data come from PubChem BioAssay AID504443 (Sanford-Burnham Center for Chemical Genomics, 2011).
